These results are taken from ChEMBL document CHEMBL1149919, “Inhibition of human rhinovirus 3C protease by homophthalimides” (Bioorg Med Chem Lett, 1997).

For orientation: inhibition means the share of the control response that was lost under treatment. As usually defined, the IC50 is the midpoint of a concentration-inhibition curve.

In data set [1] the target is T1, Human rhinovirus A protease (Human rhinovirus sp.) (UniProt Q4U254).
T1 sequence (whole entry): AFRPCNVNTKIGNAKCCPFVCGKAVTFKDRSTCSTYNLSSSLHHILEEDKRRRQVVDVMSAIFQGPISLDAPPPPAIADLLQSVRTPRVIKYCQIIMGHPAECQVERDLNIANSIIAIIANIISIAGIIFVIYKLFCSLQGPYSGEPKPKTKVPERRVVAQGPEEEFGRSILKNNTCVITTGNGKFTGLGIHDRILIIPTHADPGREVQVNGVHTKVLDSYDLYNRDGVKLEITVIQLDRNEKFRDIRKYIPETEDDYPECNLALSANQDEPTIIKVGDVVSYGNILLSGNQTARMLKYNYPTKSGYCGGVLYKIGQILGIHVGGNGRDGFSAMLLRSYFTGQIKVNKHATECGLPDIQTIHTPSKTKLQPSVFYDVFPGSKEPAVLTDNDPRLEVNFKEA
In words: Inhibition of Protease 3C of HRV-14 (human rhinovirus). The arrangement: concentration or dose not given beside the values. The conditions noted are these: Rhinovirus B; concentration not given here.

Data set [2] in a line: Therapeutic index was determined. The note with it: read-out: TI.
The target in data set [3] is T2, Human rhinovirus A protease (Human rhinovirus sp., UniProt Q4U254).
T2 sequence (Q4U254 whole entry): T1 sequence (whole entry)
In words: The compound was tested for the inhibitory activity against HRV-14 (human rhinovirus) Protease 3C.

The nature of data set [4]: Cytotoxic effect against HeLa cell line measured by XTT assay. Format: cell-based. The conditions noted are these: human, HeLa cells; read-out: TC50 (the source's name). On the technique in general: Tetrazolium assays rely on reduction of a dye to a coloured formazan, in cell work by metabolically active cells.
Another data set deals with HeLa. The data set can be described thus: Antiviral activity in a one-cycle viral replication assay against HRV-14 (human rhinovirus) infected HeLa cells. The format is functional, cell-based.

In data set [1], `CCOC(=O)CCN1C(=O)c2ccccc2C(C(C)=O)C1=O` (stereo unspecified) returned an inhibition of 8%.
In the case of `C[S+]([O-])CCN1C(=O)Cc2ccccc2C1=O` (stereo unspecified), the inhibition in data set [1] is 19%.
As to `CS(=O)(=O)CCN1C(=O)c2ccccc2C(CC(=O)c2ccccc2)C1=O` (stereo unspecified), the selectivity ratio in data set [2] came out at 8.3. Also, in data set [1], the inhibition stood at 100%. In addition, the IC50 in data set [3] was determined as 22.1 µM; in the data set with HeLa, 8.5 µM. Besides, the CC50 in data set [4] came to 70.5 µM.
Consider `O=C(O)CCN1C(=O)Cc2ccccc2C1=O`, for which the inhibition in data set [1] was determined as 0%.
Same read-out and setting: the figure for `CCOC(=O)CCN1C(=O)Cc2ccccc2C1=O` is 13%.
Molecule `CSCCCN1C(=O)Cc2ccccc2C1=O` gave an inhibition in data set [1] of 16%.
Consider `CS(=O)(=O)CCCN1C(=O)c2ccccc2C(CC(=O)c2ccccc2)C1=O` (stereo unspecified), for which the inhibition in data set [1] worked out at 70%. Moreover, the IC50 is 25 µM in data set [3] and above 10 µM in the data set on HeLa. Moreover, the CC50 in data set [4] is above 100 µM.
In data set [1], `NC(=O)CCN1C(=O)Cc2ccccc2C1=O` yielded an inhibition of 11%.
Molecule `CS(=O)(=O)CCN1C(=O)Cc2ccccc2C1=O` registered an inhibition in data set [1] of 6%.
With `CSCCCN1C(=O)c2ccccc2C(CC(=O)c2ccccc2)C1=O` (stereo unspecified), the inhibition in data set [1] stood at 35%. Further, the concentration for half-maximal inhibition (IC50) in data set [3] was 131 µM; with HeLa, above 10 µM. Also, in data set [4], the CC50 came to 63 µM.
Turning to `CN1C(=O)c2ccccc2C(CC(=O)c2ccc(F)cc2)C1=O` (stereo unspecified), the inhibition in data set [1] came out at 72%. For the same molecule, the IC50 in data set [3] was 41.1 µM; in the data set on HeLa it was above 10 µM. For the same molecule, the CC50 in data set [4] is above 100 µM.
With `CCOC(=O)CCN1C(=O)c2ccccc2C(CC(=O)c2ccccc2)C1=O` (stereo unspecified), the selectivity ratio in data set [2] turned out to be 16.7. The molecule further displayed an inhibition in data set [1] of 71%. Also, the IC50 is 55.3 µM in data set [3] and 6 µM in the data set with HeLa. In addition, the CC50 in data set [4] is above 100 µM.
Molecule `CSCCN1C(=O)Cc2ccccc2C1=O` displayed an inhibition in data set [1] of 13%.
`CN1C(=O)Cc2ccccc2C1=O` gave an inhibition in data set [1] of 14%.
